Key:
CT26 tumor cells = assay: CT26 tumor volume in BALB/c mice, responders and non-responders; format: in vivo; details: CT26 s.c. in BALB/c mice, treatment day 10 to day 20; three groups of animals with different tumor reduction
Protocol: Adult BALB/c mice were injected s.c. with 1×10^6 CT26 tumor cells (diluted to 100 μl with phosphate buffered saline) and treated with anti-PD1 or ITF3756 when the tumor volume reached 75-100 mm^3, to explore the modulation of genes in the tumor microenvironment by RNAseq. Since ITF3756 acts on the PD-1/PD-L1 axis, this approach allows the identification of genes specific and common to both treatments. The overall schedule is described in Table 9.
Responders and non-responders were selected based on tumor volume at day 20. The volume of the tumor at the beginning of the treatments (day 10) was on average about 75 mm^3. Based on this value of tumor volume, we classified the animals according to the following criteria: • Animals with tumor volume lower or equal to 75 mm^3 were considered RESPONDERS (R) • Animals with tumor volume greater than 75 mm^3 were considered NON RESPONDERS (NR)

[1] = rat, in vivo, 1000 mg/kg
human monocytes = assay: RNAseq gene expression in purified human monocytes treated with ITF3756 and/or TNF-α; format: cell-based
Description: PBMCs used for the experiments were obtained from Buffy Coats of healthy donors (all samples tested negative for transmissible diseases as required for blood transfusion) separated over a Ficoll-Hypaque gradient (Biochrom). Monocytes were purified by negative selection from 100×10^6 PBMC using Pan Monocytes Isolation Kit (Milteny) following manufacturer's instructions. By Pan Monocyte Isolation kit untouched monocytes are isolated from human PBMCs and the simultaneous enrichment of classical (CD14^++CD16^−), non classical (CD14^+CD16^++) and intermediate (CD14^++CD16^+) monocytes is achieved. Non-monocytes, such as T cells, NK cells, B cells, dendritic cells, and basophils are indirectly magnetically labeled using a cocktail of biotin-conjugated antibodies and anti-Biotin MicroBeads. Briefly, 400 μL of Buffer (PBS 1×, 0.5% BSA and 2 mM EDTA), 100 μL of FcR Blocking Reagent and 100 μL of Biotin-Antibody Cocktail were added to PBMC, previously washed with PBS by centrifugation 300×g for 5 minutes, mixed and incubate for 5 minutes in the refrigerator (2-8° C.). After incubation, 300 μL of Buffer and 200 μL of anti-biotin microbeads were added to the cells, mixed and incubate further for 10 minutes in the refrigerator. After incubation cells were processed by subsequent magnetic cell separation. Cell suspension was applied onto the column and the flow-through containing unlabeled cells, representing the enriched monocytes, was collected. Purified monocytes were washed with Buffer by centrifugation 300×g for 5 minutes and counted in PBS. Purified monocytes (1,0×10^6/ml) were pre-treated for 2 h with ITF3756 1 μM or DMSO (0.005%) in 12-well plates in 1 ml final volume of complete medium (RPMI (Biochrom), FCS 10% and penicillin/streptomycin 1× (Sigma)). The cells were then stimulated or not with TNF-α (100 ng/mL, Peprotech) for 4h. After incubation with ITF3756 and TNF-α, the cells were collected, washed with PBS by centrifugation 300×g for 5 minutes and stored at −80° C. Samples were thawed on the bench for 2 minutes and total RNA was extracted with Trizol reagent (Thermo Fisher Scientific), following manufacturer's instructions. Briefly, Trizol reagent (0.75 ml Trizol per 5-10×10^6 cells) was added to the samples and the samples were incubated at room temperature (RT) for 5 minutes. After incubation, chloroform (150 μL per 0.75 mL Trizol) was added to the samples and after 3 minutes of incubation at RT, samples were centrifuged for 12000×g for 14 minutes at 4° C. After centrifugation, the mixture separates into 3 phases and RNA remains in the aqueous phase. The aqueous phase was removed for each sample and placed in new tubes, and isopropanol (0,375 ml per 0.75 ml of Trizol) was added in each tube. Samples was incubated for 30 minutes in the refrigerator (2-8° C.). After incubation, samples were centrifugated for 12000×g for 10 minutes at 4° C., the supernatant was removed and 75% ethanol (0.75 ml per 0.75 ml of Trizol) was added to samples. Samples were centrifuged for 7500×g for 5 minutes at 4° C., and the supernatant discarded. RNA was air dried on the bench for 5-10 minutes. RNA Samples was then resuspended in water (10-50 μL). The scheme of the experimental procedures carried out to generate the RNA sequence data is represented in FIG. 1. To determine the quantity and the integrity/purity of RNA samples, check controls were first performed by the Agilent Technologies 2100 Bioanalyzer using RNA 6000 LabChip® kit (Agilent #5067-1511). The Bioanalyzer is a bio-analytical device based on a combination of microfluidic chips, voltage-induced size separation in gel filled channels and laser-induced fluorescence (LIF) detection on a miniaturized scale. The RNA Integrity Number (RIN) software algorithm allows the classification of total RNA, based on a numbering system from 1 to 10, (with 1 being the most degraded and 10 being the most intact). […] Purified samples were processed using TruSeq RNA-Seq v2 Library Preparation Kit. […]

[2] = ITF3756 1 μM in combination with TNF-α 100 ng/mL, RNAseq
[3] = ITF3756 1 μM in the presence of TNF-α 100 ng/mL, RNAseq
[4] = ITF3756 + TNFα vs vehicle-treated control (don)
[5] = M2 marker, human monocytes, ITF3756 1 μM, RNAseq
[6] = single treatment (ITF3756 1 μM or TNF-α 100 ng/mL), RNAseq, vs control
[7] = single treatment (ITF3756 1 μM), RNAseq, vs control
[8] = single treatment vs vehicle-treated control (don), monocytes 4 h, padj<0.05
[9] = versus control, not shared with TNF-α or ITF3756+TNF-α

O=C(NO)c1ccc(Cn2nnnc2-c2cccs2)cc1 [ITF3756, N-hydroxy-4-((5-(thiophen-2-yl)-1 H-tetrazol-1-yl)methyl)benzamide]
tumor response (tumor volume) (CT26 tumor cells): heterogeneous response
tolerability [1]: well tolerated
CD40 gene expression (human monocytes; ITF3756 1 μM combined with TNF-α 100 ng/mL, RNAseq): slightly increases the upregulation of CD40 expression induced by TNF-α alone
ADA gene expression (human monocytes; [2]): upregulation
FATP1/SLC27A1 gene expression (human monocytes; [2]): the basal expression of the gene is maintained
IRF6 gene expression (human monocytes; [2]): no effect
NBEAL2 gene expression (human monocytes; [2]): increases the expression
ANXA6 gene expression (human monocytes; [3]): the upregulation is even stronger and probably synergistic
CD84 gene expression (human monocytes; [3]): downregulation is further enhanced
CD163 gene expression (human monocytes; [3]): down-modulated
CD204/MSR1 gene expression (human monocytes; [3]): strongly down-modulated
CD206/MRC1 gene expression (human monocytes; [3]): strongly down-modulated
CXCL2 gene expression (human monocytes; [3]): reverts the upregulation induce by TNF establishing a normal level of expression
LTBP4 gene expression (human monocytes; [3]): counters this downregulation
RANK/TNFRSF11a gene expression (human monocytes; [3]): downregulation of RANK/TNFRSF11a is increased compared to single treatments
STAB1 gene expression (human monocytes; [3]): synergistically reduced
Genes Down regulated (number of genes modulated) (human monocytes; [4]): 2329
Genes Up regulated (number of genes modulated) (human monocytes; [4]): 2282
MMP9 gene expression (human monocytes; ITF3756+TNF-α, compared to untreated control, RNAseq): No modulation
Fold change ADA (human monocytes; [5]): −1.9
Fold change CD163 (human monocytes; [5]): −4
Fold change CD204/MSR1 (human monocytes; [5]): −2.6
Fold change CD206/MRC1 (human monocytes; [5]): −13.3
Fold change MMP9 (human monocytes; [5]): −3.6
Fold change STAB1 (Stabilin-1/Clever-1) (human monocytes; [5]): −14
downregulation of PD-L1 (CD274) gene expression (human monocytes; cells treated with TNF-α+ITF3756, RNAseq): 59%
ADA gene expression (human monocytes; [6]): downmodulated
IRF6 gene expression (human monocytes; [6]): upregulates the expression
LTBP4 gene expression (human monocytes; [6]): upregulates the expression
MMP9 gene expression (human monocytes; single treatment (ITF3756 1 μM or TNF-α 100 ng/mL), RNAseq, vs untreated control): down-modulated
ANXA6 gene expression (human monocytes; [7]): robust upregulation
CD40 gene expression (human monocytes; [7]): upregulates
CD84 gene expression (human monocytes; [7]): strongly downregulates
CD163 gene expression (human monocytes; [7]): down-modulated
CD204/MSR1 gene expression (human monocytes; [7]): down-modulated
CD206/MRC1 gene expression (human monocytes; [7]): strongly down-modulated
CXCL2 gene expression (human monocytes; [7]): decreases the expression
CXCL3 gene expression (human monocytes; [7]): reduced the expression
FATP1/SLC27A1 gene expression (human monocytes; [7]): up-regulates the expression
NBEAL2 gene expression (human monocytes; [7]): increases the expression
RANK/TNFRSF11a gene expression (human monocytes; [7]): strong downregulation
STAB1 gene expression (human monocytes; [7]): strongly downregulated
CD276 gene expression (human monocytes; single treatment (ITF3756), vs control): down-regulated the expression
Genes Down regulated (number of genes modulated) (human monocytes; [8]): 1503
Genes Up regulated (number of genes modulated) (human monocytes; [8]): 1499
genes specifically downregulated (Venn diagram) (human monocytes; [9]): 386
genes specifically upregulated (Venn diagram) (human monocytes; [9]): 537

Reference: patent US20250011878A1, “METHOD TO DETECT RNA BIOMARKERS” (ITALFARMACO SPA, priority 2021, published 2025)
